Assay results from the supplement of paper PMC8967900.

Legend:
Assay in all cases: selective drug sensitivity score (sDSS, relative to normal bone marrow) (sDSS (score)); higher = more potent and effective on the cell line relative to normal bone marrow cells
Conditions in all cases: 72 h
[1] = test system: PEER
[2] = test system: LC4-1
[3] = test system: KASUMI-2
[4] = test system: RCH-ACV
[5] = test system: NALM-6
[6] = test system: MHH-CALL-2
[7] = test system: ALL-PO
[8] = test system: 380
[9] = test system: KARPAS-45
[10] = test system: JURKAT
[11] = test system: TMD5
[12] = test system: NALM-16
[13] = test system: MOLT-4
[14] = test system: COG-LL-332h
[15] = test system: MN-60
[16] = test system: MOLT-14
[17] = test system: KASUMI-9
[18] = test system: 697
[19] = test system: ALL-SIL
[20] = test system: HAL-01
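Further: ALL cell lines in 384-well plates, five doses spanning 10,000-fold, each plate scaled between vehicle and 100 µmol/L benzalkonium chloride controls, sDSS an adapted area-under-curve metric.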

| SMILES | selective drug sensitivity score [1] | selective drug sensitivity score [2] | selective drug sensitivity score [3] | selective drug sensitivity score [4] | selective drug sensitivity score [5] | selective drug sensitivity score [6] | selective drug sensitivity score [7] | selective drug sensitivity score [8] | selective drug sensitivity score [9] | selective drug sensitivity score [10] | selective drug sensitivity score [11] | selective drug sensitivity score [12] | selective drug sensitivity score [13] | selective drug sensitivity score [14] | selective drug sensitivity score [15] | selective drug sensitivity score [16] | selective drug sensitivity score [17] | selective drug sensitivity score [18] | selective drug sensitivity score [19] | selective drug sensitivity score [20] |
| --- | --- | --- | --- | --- | --- | --- | --- | --- | --- | --- | --- | --- | --- | --- | --- | --- | --- | --- | --- | --- |
| CN1CCN(C2CCC(n3cc(-c4ccc(Oc5ccccc5)cc4)c4c(N)ncnc43)CC2)CC1 (stereo not given) (top concentration 10000 nM) | 7.02 | -1.78 | -1.38 | 22.7 | 3.42 | 3.12 | 9.52 | -0.68 | 4.12 | 0.62 | 10.2 | 0.72 | 0.82 | 6.42 | 1.32 | 3.42 | 6.52 | 3.32 | 16.3 | 7.52 |
| CC[C@H](CC#N)OC(=O)N[C@@H](C)c1cccc(NC(=O)Nc2ccc(-c3cnco3)c(OC)c2)c1 [AVN944] (top concentration 10000 nM) | 2.94 | 5.34 | 14.4 | 22 | 15.5 | 9.54 | 5.94 | 18.4 | 8.84 | 13.7 | 2.74 | 0.24 | 15.6 | 18 | 3.64 | 15.9 | 13.5 | 17.5 | 6.64 | 5.54 |
| COc1ccc(-c2ccc3c(N4CCOC[C@@H]4C)nc(N4CCOC[C@@H]4C)nc3n2)cc1CO [AZD8055] (top concentration 10000 nM) | 6.08 | 6.38 | 14.6 | 27.4 | 3.68 | 6.08 | 10.6 | 15.8 | 4.78 | 4.88 | -1.62 | 1.78 | 7.08 | 8.08 | 7.98 | 1.18 | 13.3 | 16.8 | 6.78 | 5.08 |
| COc1cccc2c1C(=O)c1c(O)c3c(c(O)c1C2=O)C[C@@](O)(C(=O)CO)C[C@@H]3O[C@H]1C[C@H](N)[C@@H](O)[C@H](C)O1 [Epirubicin] (top concentration 1000 nM) | -2.98 | 7.62 | 7.72 | 12.9 | 3.82 | 6.12 | -1.78 | 13.8 | -0.28 | 1.02 | 1.02 | -0.28 | 9.92 | 11.3 | -0.98 | 11.6 | 7.62 | 10.1 | 0.42 | -4.28 |
| CO[C@H]1C[C@@H]2CC[C@@H](C)[C@@](O)(O2)C(=O)C(=O)N2CCCC[C@H]2C(=O)O[C@H]([C@H](C)C[C@@H]2CC[C@@H](OCCO)[C@H](OC)C2)CC(=O)[C@H](C)/C=C(\C)[C@@H](O)[C@@H](OC)C(=O)[C@H](C)C[C@H](C)/C=C/C=C/C=C/1C [Everolimus] (top concentration 100 nM) | 3.2 | 3.3 | 11.8 | 16 | -3.8 | 4.2 | 8.9 | 16.5 | 0.2 | -1 | -3.8 | -2 | -1.2 | 4.5 | 0.5 | -2.2 | 10.3 | 9.3 | -0.2 | 2.7 |
| CON(C)C(=O)N1N=C(c2cc(F)ccc2F)S[C@@]1(CCCN)c1ccccc1 [Filanesib] (top concentration 1000 nM) | 19.2 | 13.2 | 19.8 | 16.3 | 21 | 16.4 | 6.7 | 18.5 | 20.9 | 17.7 | 10.5 | 16.6 | 9.3 | 21.1 | 7.1 | 22.9 | 12.4 | 23 | 16.6 | 11.5 |
| CN(Cc1cnc2nc(N)nc(N)c2n1)c1ccc(C(=O)N[C@@H](CCC(=O)O)C(=O)O)cc1 [Methotrexate] (top concentration 5000 nM) | 14.6 | -0.02 | 0.28 | 9.48 | 16.4 | 13.8 | -0.12 | 17.8 | 11.5 | 13.4 | -0.42 | 6.68 | 11.2 | 11.3 | 14.6 | 10.8 | -0.42 | 0.58 | 15 | 17.1 |
| CC[C@@]1(O)C(=O)OCc2c1cc1n(c2=O)Cc2cc3c(CN(C)C)c(O)ccc3nc2-1 [Topotecan] (top concentration 10000 nM) | 10.1 | 21.7 | 14.7 | 19.5 | 17.1 | 26.6 | 17.9 | 27.1 | -0.22 | 15.2 | 14.3 | 7.18 | 19.9 | 23.9 | 4.28 | 25.9 | 18.2 | 18.9 | 24.9 | 20 |
| O=c1[nH]c(=O)n([C@H]2C[C@H](O)[C@@H](CO)O2)cc1C(F)(F)F [Trifluridine] (top concentration 10000 nM) | 7.66 | 16 | 10.3 | 15.2 | 15 | 9.96 | 20 | 14 | -1.84 | 9.66 | -1.84 | 4.06 | 7.36 | 7.46 | 3.66 | 15.4 | 6.56 | 17.9 | 13.7 | 8.76 |
| Cc1sc2c(c1C)C(c1ccc(Cl)cc1)=N[C@@H](CC(=O)NCCCCNC(=O)COc1cccc3c1C(=O)N(C1CCC(=O)NC1=O)C3=O)c1nnc(C)n1-2 (stereo not given in full) [dBET1] (top concentration 10000 nM) | -4.48 | 5.22 | -6.88 | 0.22 | -4.78 | 4.92 | -5.58 | -4.58 | -7.68 | -11.9 | -13.8 | -4.48 | -9.28 | -8.98 | -8.08 | -1.48 | 2.42 | -0.38 | -7.08 | -14.9 |
